Measured values reported in patent US9981983B2, “Thienopyranones as kinase inhibitors” (SignalRx Pharmaceuticals, Inc., priority 2008, dated 2018).
Read-outs that look alike come from different tables or passages of the source.

How the values were obtained:
Type in all cases: cell-based
PC3 cells = assay: PC3 prostate cancer cell proliferation (WST); settings: Homo sapiens, PC-3; 72 hours; read-out: IC50 PC3 Proliferation
Method: (§1) PC3 cells were obtained from the American Type Culture Collection (ATCC, Manassas, Va., Cat.# CRL-1435) Two thousand cells from the prostate cancer line PC3 were placed in 50 μL of complete RPMI 1640 media (Invitrogen, Carlsbad, Calif., Cat.#22400-105) with 10% fetal bovine serum (Invitrogen, Carlsbad, Calif., Cat.#10438-026) into each well of 96 well cell culture plates in a hexaplicate sampling pattern. A 50 μL aliquot of test compound (prepared from stock test compounds in DMSO diluted into media) was added to the appropriate well such that the final concentrations of test compound were 200, 40, 8, 1.6, 0.32, 0.064, 0.0128, 0.00256, and 0 μM and the final DMSO concentration was less than or equal to 0.2%.
(§2) The plates were incubated for 72 hours 37° C. in an atmosphere of 5% CO2. At the end of this time a 10 μL aliquot of WST solution (Roche Applied Science, Mannheim, Germany) was added into each of the wells. Cells were exposed to the WST solution for 4 hours. A SpectraMax Plus spectrophotometric plate reader (Molecular Devices, Sunnydale, Calif.) was then used to measure the optical density at 450 nm (OD450 nm). Sigmoidal curves were drawn for the dose responses and IC50 values were calculated using the software package GraphPad Prism4 (GraphPad Software, Inc., San Diego, Calif.).

786-0 cells = assay: Apoptosis in 786-0 cells (Annexin V / PI flow cytometry); set-up: unit not given here; settings: overnight
Method: In order to evaluate the mechanism of action of these compounds, 786-0 cell cultures were treated with Cpd 9 or Cpd 28 at different concentrations overnight and then analyzed for apoptotic induction. The cells were stained using standard methods with Annexin V and/or Propedium iodine (PI) at room temperature for 15 minutes. Apoptotic cells at early (Annexin V positive) or late stage (both Annexin V and PI positive) were detected by Flow Cytometry.

DU145 (Prostate) = assay: Cell proliferation MTS assay, DU145; settings: Homo sapiens, DU-145, 72 hours
Method: All cell lines were obtained from ATCC and cultured and plated according to ATCC recommendations. Cells were cultured in complete culture media containing 10% heat-inactivated fetal bovine serum (FBS, Mediatech, Inc.). For adherent cell lines, once cells reached 70% confluency, they were trypsinized and resuspended in phenol red free RPMI media (Mediatech, Inc.) plus 10% heat-inactivated FBS (assay buffer) and 100 μL aliquots were plated into each well of 96-well microtiter plates at a final density of 1,000-2,000 cells/well. Cells were incubated overnight at 37° C. in 5% CO2, and treated with test compounds on the next day. For suspension cell lines, cells were resuspended in assay buffer, plated into 96-well microtiter plates at a density of 10^4-10^5 cells/well/100 μL, and treatment was started on the same day. Cells were treated with vehicle (DMSO) and test compounds for 72 hours at concentration of 100, 70, 40, 20, 10, 5, 2.5, 1.25, 0.5 and 0.2 μM in four replicates at 37° C. in 5% CO2.

[1] = tested on: AKT Ser473 phosphorylation in PC3 (prostate cancer) Cell Line; assay: pAKT Ser473 ELISA in PC3 cells stimulated by Bv8, VEGF, IGF; settings: Homo sapiens, PC-3, PC3, read-out: Concentration Required to Inhibit pAKT to Half-maximal Levels
Method: This was followed by the addition of IGF, VEGF and Bv8 to 0.1 μg/mL, 0.1 μg/mL and 2.5 μg/mL respectively for another 30 minutes before harvesting the cells and making cell lysates with RIPA buffer keeping on ice, pAKT levels were measured in duplicate samples with Cell Signaling's Ser473 pAKT ELISA kit. Optical density plate readings of pAKT levels were made at 450 nm (OD450 nm) and were normalized by total protein amount of the cell lysates. The dose of compound at which pAKT levels are reduced to 50% of the non-treatment level was calculated using GraphPad Prism4 software and is listed in Tables 4 and 5 below.

pAKT in BT-474 cells = assay: pAKT status DM50, BT-474; settings: Homo sapiens; BT-474, breast cancer
Method: (§3) PC3 cells were obtained from the American Type Culture Collection (ATCC, Manassas, Va., Cat.# CRL-1435). Two million cells from the prostate cancer line PC3 were placed into 6 cm culture dishes and allowed to grow in complete RPMI 1640 media (Invitrogen, Carlsbad, Calif., Cat.#22400-105) with 10% fetal bovine serum (Invitrogen, Carlsbad, Calif., Cat.#10438-026). After this time period the cells were serum starved for 5 hours followed by application of the test compound. Test compound was added as a DMSO (dimethyl sulfoxide) solution such that the final DMSO concentration in the cell media was less than or equal to 0.2% by volume After 30 minutes of exposure the growth factor stimulant, human IGF-1 (PeproTech, Inc., Rocky Hill, N.J., Cat.#100-11), was added to a final concentration of 0.1 μg/ml in each well. After 30 minutes of IGF-1 exposure, cells were removed from the media and cell lysates were prepared using RIPA Lysis buffer (Upstate, Lake Placid, N.Y., Cat.#20-188), keeping on ice. The pAKT serine 473 level was measured in duplicate samples of the cell lysates using commercially available assays such as the Pathscan® Sandwich ELISA kit for Ser473 pAKT (Cell Signaling, Danvers, Mass., Cat.#7160). A SpectraMax Plus spectrophotometric plate reader (Molecular Devices, Sunnydale, Calif.) was used to measure the optical density signal for pAKT at 450 nm (OD450 nm). The pAKT OD450 nm readings were normalized by total protein amount in the cell lysates determined by standard methods.
(§4) Concentrations of test compounds required to inhibit IGF stimulated pAKT levels to 50% of maximum levels in PC3 cells (termed DM50 for decreased maximum 50%) were calculated by inputting the dose responses in the software package GraphPad Prism4 (GraphPad Software, Inc., San Diego, Calif.).
(§5) Several other cancer cell lines were obtained from ATCC and grown according to the supplier's recommendations and treated with test compounds. DM50 values listed in Table 6 below were obtained by the methods described in Example A: […]

pAKT in 786-O cells = assay: pAKT status DM50, 786-O; settings: Homo sapiens, 786-0, renal cell carcinoma
Method: as §3, §4, §5

BT-474 cells = assay: Cellular proliferation (Example B method), BT-474; settings: Homo sapiens; BT-474, breast cancer
Method: as §1, §2
Several other cancer cell lines were obtained from ATCC and grown according to their recommendations and treated with test compounds to obtain the concentration of test compound that inhibited the cellular proliferation by 50% of no-treatment controls. These IC50 values (μM) are listed in Table 7 below obtained by the methods described in Example B: […]

IC50 (PC3 cells): 1300 to 1910 nM
IC50 (DU145 (Prostate)): 2070 nM
IC50 ([1]; stimulant Bv8): 116 nM
IC50 ([1]; stimulant IGF): 888 nM
IC50 ([1]; stimulant PBS): 229 nM
IC50 ([1]; stimulant VEGF): 152 nM
IC50 (pAKT in BT-474 cells): 307 nM
IC50 (pAKT in 786-O cells): 1370 nM
IC50 (BT-474 cells): 3780 nM
SMILES: O=c1cc(N2CCOCC2)oc2c(-c3ccc4c(c3)OCCO4)csc12 [Compound 28, 3-(2,3-dihydrobenzo[b][1,4]dioxin-6-yl)-5-morpholino-7H-thieno[3,2-b]pyran-7-one]
Early stage apoptotic cells (786-0 cells; 5 μM): 10.4
Late stage apoptotic cells (786-0 cells; 5 μM): 11.56
Total Apoptotic Cells (786-0 cells; 5 μM): 21.96
Early stage apoptotic cells (786-0 cells; 10 μM): 16.45
Late stage apoptotic cells (786-0 cells; 10 μM): 15.43
Total Apoptotic Cells (786-0 cells; 10 μM): 31.88
